Measurements reported in the NIST ThermoML archive (doi:10.1016/j.jct.2017.03.021).
Several values for one entry are separate records, joined by “and”; a condition that tells them apart may be missing. Identical values can stand only once.

What was measured:
[1] = Molar enthalpy of transition or fusion; details: Crystal; DSC
[2] = Crystal; for vapor or sublimation pressure: Calculated from knudsen effusion weight loss

O=Cc1ccc2c(c1)Cc1ccccc1-2 [9H-fluorene-2-carbaldehyde]
Details	Molar enthalpy of transition or fusion [kcal/mol]
[1]	5.26

[2]
Details	Normal melting temperature [°C]	vapor or sublimation pressure
335.16 K	–	0.000121 kPa and 0.00012 kPa
337.16 K	–	0.000147 kPa and 0.000149 kPa and 0.000144 kPa
339.09 K	–	0.000186 kPa and 0.000185 kPa
341.11 K	–	0.000231 kPa and 0.000233 kPa
341.16 K	–	0.000227 kPa
343.08 K	–	0.000288 kPa and 0.000289 kPa
343.14 K	–	0.000288 kPa
345.09 K	–	0.00036 kPa and 0.000361 kPa and 0.000364 kPa
347.16 K	–	0.000444 kPa and 0.000463 kPa
349.11 K	–	0.000553 kPa and 0.00054 kPa and 0.000557 kPa
351.09 K	–	0.000685 kPa and 0.000687 kPa and 0.000681 kPa
353.1 K	–	0.000861 kPa and 0.000847 kPa and 0.000859 kPa
355.09 K	–	0.001048 kPa and 0.001057 kPa and 0.001075 kPa
DTA	84.5	–
